Measurements: patent US20240269139A1, “COMPOUNDS FOR TARGETED PROTEIN DEGRADATION OF KINASES” (DANA-FARBER CANCER INSTITUTE, INC., priority 2020, published 2024)
Read-outs that look alike come from different tables or passages of the source.

Tested on: protein kinases (human kinome)
Type: cell-based
Conditions: for logFC of SRC: Accession P12931-2; for logFC CDK12: Accession Q9NYV4-2; for logFC of FER: FER P16591-3; for logFC LCK: accession P06239-3; for logFC RPS6KA1: RPS6KA1 (Q15418-2)
[1] = AURKB Q96GD4-5, experiment wp133, 2 hr
[2] = AURKB Q96GD4-5, experiment wp133, 4 hr
[3] = Experiment wp107, direction down
[4] = experiment wp016, 1 uM, direction of change down
[5] = experiment wp016, direction of change down
[6] = experiment wp103, direction of change down
[7] = experiment wp107, direction of change down
[8] = experiment wp133, 2 hr, direction of change down
[9] = experiment wp133, 4 hr, direction of change down

CC(C)S(=O)(=O)c1ccccc1Nc1nc(Nc2ccc(N3CCN(CCOCCNC(=O)CNc4cccc5c4C(=O)N(C4CCC(=O)NC4=O)C5=O)CC3)cc2)ncc1Cl (centres unmarked) [SK.3.91]
logFC AURKB (AURKB Q96GD4-5, experiment wp133, 1 hr): −0.4923
logFC [1]: −0.5333
logFC AURKB [1]: −0.5333
logFC [2]: −0.8007
logFC AURKB [2]: −0.8007
logFC BUB1B (Accession O60566-3, experiment wp016, 1 uM, direction down): −0.4685
logFC BUB1B (Accession O60566-3, experiment wp103, direction down): −0.3983
logFC BUB1B (Accession O60566-3, experiment wp107, direction down): −0.5037
logFC BUB1B (Accession O60566-3, experiment wp133, 1 hr, direction down): −0.4083
logFC BUB1B (Accession O60566-3, experiment wp133, 2 hr, direction down): −0.4195
logFC BUB1B (Accession O60566-3, experiment wp133, 4 hr, direction down): −0.5871
logFC of SRC (experiment wp016): −0.3847
logFC of SRC (experiment wp016, 1 uM): −0.8428
logFC of SRC (experiment wp103): −0.5004
logFC of SRC (experiment wp105): −0.3464
logFC of SRC (experiment wp107): −0.7782
logFC of SRC (experiment wp133, 4 hr): −0.6408
logFC CSNK1D (Accession P48730-2, experiment wp114, direction down): −0.3991
logFC CSNK1D (Accession P48730-2, experiment wp160, 4 hr, direction down): −0.3373
logFC CDK12 (experiment wp107): −1.042
logFC CDK12 (experiment wp160, 2 hr): −0.4558
logFC CDK12 (experiment wp160, 4 hr): −0.8448
logFC BUB1B (BUB1B (O60566-3), experiment wp016, 1 uM): −0.4685
logFC BUB1B (BUB1B (O60566-3), experiment wp103): −0.3983
logFC BUB1B (BUB1B (O60566-3), experiment wp107): −0.5037
logFC BUB1B (BUB1B (O60566-3), experiment wp133, 1 hr): −0.4083
logFC BUB1B (BUB1B (O60566-3), experiment wp133, 2 hr): −0.4195
logFC BUB1B (BUB1B (O60566-3), experiment wp133, 4 hr): −0.5871
logFC (CDK9 (P50750-2) protein abundance, degrader vs DMSO, 1 uM, down): −1.356
logFC (CDK9 (P50750-2) protein abundance, degrader vs DMSO, 2 hr, down): −0.3971
logFC (CDK9 (P50750-2) protein abundance, degrader vs DMSO, 4 hr, down): −1.037
logFC (CDK18 (Q07002-3), experiment wp105): −1.233
logFC (CDK18 (Q07002-3), experiment wp114): −0.8295
logFC CSNK1D (CSNK1D P48730-2, experiment wp114): −0.3991
logFC CSNK1D (CSNK1D P48730-2, experiment wp160, 4 hr): −0.3373
logFC PRKAA1 (Q13131-2) (Experiment wp016, 1 uM, direction down): −0.7977
logFC PRKAA1 (Q13131-2) (Experiment wp016, direction down): −0.4914
logFC CDK9 (P50750-2) (Experiment wp103): −0.7857
logFC PRKAA1 (Q13131-2) (Experiment wp103, direction down): −0.5012
logFC PRKAA1 (Q13131-2) (Experiment wp105, direction down): −0.4413
logFC MAP3K12 (Q12852-2) (Experiment wp105, direction of change down): −0.6931
logFC CDK9 (P50750-2) (Experiment wp107): −1.2
logFC of CDK12 (Q9NYV4-2) (Experiment wp107): −1.042
logFC PRKAA1 (Q13131-2) [3]: −0.6352
logFC TNK2 (Q07912-3) [3]: −1.18
logFC of CDK18 (Q07002-3) (Experiment wp114): −0.8295
logFC TNK1 (Q13470-2) (Experiment wp114, direction of change down): −0.7394
logFC PRKAA1 (Q13131-2) (Experiment wp133, 2 hr, direction down): −0.3804
logFC PRKAA1 (Q13131-2) (Experiment wp133, 4 hr, direction down): −0.6752
logFC of CDK12 (Q9NYV4-2) (Experiment wp160, 2 hr): −0.4558
logFC ABL2 (P42684-5) (Experiment wp172): −0.7139
logFC of ABL2 (P42684-5) (Experiment wp172): −0.7139
logFC (FER (P16591-3), experiment wp114, direction down): −2.308
logFC (FER (P16591-3), experiment wp172, direction down): −2.816
logFC of FER (experiment wp114): −2.308
logFC of FER (experiment wp172): −2.816
logFC LCK [4]: −1.579
logFC LCK [5]: −0.9189
logFC LCK [6]: −1.148
logFC LCK [7]: −1.575
logFC LCK [8]: −0.5352
logFC LCK [9]: −1.277
logFC (LIMK2 (P53671-3), experiment wp105, direction down): −0.8401
logFC of LIMK2 (LIMK2 P53671-3, experiment wp105): −0.8401
logFC (MARK2 Q7KZI7-14, experiment wp105): −0.4159
logFC (MARK2 Q7KZI7-14, experiment wp133, 4 hr): −0.4086
logFC (PIP5K1A (Q99755-3), experiment wp107): −0.45
logFC (PIP5K1A (Q99755-3), experiment wp133, 4 hr): −0.3712
logFC (PTK2B (Q14289-2), experiment wp107, direction down): −3.126
logFC PTK2B (PTK2B, accession Q14289-2, experiment wp107, direction of change down): −3.126
logFC RPS6KA1 (experiment wp016, 1 uM): −0.4146
logFC RPS6KA1 (experiment wp133, 4 hr): −0.3598
logFC (SRC (P12931-2) protein abundance, degrader vs DMSO, 1 uM, down): −0.8428
logFC (SRC (P12931-2) protein abundance, degrader vs DMSO, 4 hr, down): −0.6408
logFC (STK40 (Q8N2I9-4), experiment wp105, direction down): −0.606
logFC (STK40 Q8N2I9-4, experiment wp105): −0.606
logFC (TNK2 (Q07912-3), experiment wp107, direction down): −1.18
logFC CDK9 (P50750-2) (experiment wp016): −0.6515
logFC PRKAA1 (Q13131-2) (experiment wp016): −0.4914
logFC ABL1 (P00519-2) (experiment wp016, 1 uM): −0.3875
logFC CDK9 (P50750-2) (experiment wp016, 1 uM): −1.356
logFC PRKAA1 (Q13131-2) (experiment wp016, 1 uM): −0.7977
logFC RPS6KA1 (Q15418-2) (experiment wp016, 1 uM): −0.4146
logFC LCK (P06239-3) [4]: −1.579
logFC LCK (P06239-3) [5]: −0.9189
logFC PRKAA1 (Q13131-2) (experiment wp103): −0.5012
logFC LCK (P06239-3) [6]: −1.148
logFC ABL1 (P00519-2) (experiment wp105): −0.333
logFC CDK9 (P50750-2) (experiment wp105): −0.6775
logFC CDK16 (Q00536-2) (experiment wp105): −0.6346
logFC PRKAA1 (Q13131-2) (experiment wp105): −0.4413
logFC of CDK18 (Q07002-3) (experiment wp105): −1.233
logFC of MARK2 (Q7KZI7-14) (experiment wp105): −0.4159
logFC ABL1 (P00519-2) (experiment wp107): −0.4711
logFC CDK16 (Q00536-2) (experiment wp107): −0.4701
logFC PRKAA1 (Q13131-2) (experiment wp107): −0.6352
logFC ULK3 (Q6PHR2-4) (experiment wp107): −1.084
logFC LCK (P06239-3) [7]: −1.575
logFC TGFBR1 (P36897-2) [7]: −0.5264
logFC ULK3 (Q6PHR2-4) [7]: −1.084
logFC CDK9 (P50750-2) (experiment wp133, 2 hr): −0.3971
logFC PRKAA1 (Q13131-2) (experiment wp133, 2 hr): −0.3804
logFC LCK (P06239-3) [8]: −0.5352
logFC ABL1 (P00519-2) (experiment wp133, 4 hr): −0.3801
logFC CDK9 (P50750-2) (experiment wp133, 4 hr): −1.037
logFC PRKAA1 (Q13131-2) (experiment wp133, 4 hr): −0.6752
logFC RPS6KA1 (Q15418-2) (experiment wp133, 4 hr): −0.3598
logFC of MARK2 (Q7KZI7-14) (experiment wp133, 4 hr): −0.4086
logFC LCK (P06239-3) [9]: −1.277
logFC of CDK12 (Q9NYV4-2) (experiment wp160, 4 hr): −0.8448
logFC MAP3K12 (protein MAP3K12 (Q12852-2), experiment wp105, down): −0.6931
logFC TGFBR1 (protein TGFBR1 (P36897-2), experiment wp107, down): −0.5264
logFC TNK1 (protein TNK1 (Q13470-2), experiment wp114, down): −0.7394
